Source: patent US6706664B1, “Benzoxazole compounds, process for the preparation thereof and herbicides” (UBE Industries, Ltd., priority 1999, dated 2004)

Key:
Parameters in all cases: key: 0: normal development; 1: Less damaged; 2: Slightly damaged; 3: Moderately damaged; 4: Severely damaged; 5: All killed
[1] = test system: monochoria; assay: Herbicidal test for paddy field; type: in vivo, Monochoria vaginalis; conditions: paddy field pot, 500 g/ha dropwise at 1.5 leaf stage of barnyardgrass, 3 weeks, rank vs non-treated
In short: (§1)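 Under flooded conditions (3 cm water over Ube soil), each compound was delivered by pipet as a diluted wettable powder (0.05% surfactant) at 500 g/ha, timed to 1.5-leaf barnyardgrass. Plants stayed 3 weeks in a 25° C glasshouse before injury was graded from 0 (normal) to 5 (all killed).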

[2] = test system: Large crabgrass; assay: Foliar spread test for upland field; type: in vivo, Digitaria adscendens; conditions: foliar spray 500 ppm, 3 weeks, rank vs non-treated
In short: (§2)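 Two-week-old glasshouse seedlings on volcanic ash soil were treated by foliar spray at 500 ppm, with 0.5% surfactant in the diluent. Effects were graded visually after three weeks, from 0 for no injury to 5 for complete kill.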

[3] = test system: cotton; assay: Foliar spread test for upland field; type: in vivo; conditions: foliar spray 500 ppm, 3 weeks, rank vs non-treated
In short: (§3)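 Crop seeds sown in volcanic ash soil in Wagner pots were raised about 2 weeks in a glasshouse, then sprayed with wettable-powder formulations diluted to 500 ppm in water with 0.5% surfactant. After 3 weeks at an average 25° C., injury was scored 0 (normal) to 5 (all killed).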

[4] = test system: soybean; assay: Foliar spread test for upland field; type: in vivo; conditions: foliar spray 500 ppm, 3 weeks, rank vs non-treated
In short: as §3

[5] = test system: livid amaranth; assay: Soil treatment test for upland field; type: in vivo, Amaranthus lividus; conditions: 500 g/ha, glass house 25° C., 3 weeks
In short: (§4)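 Visual 0–5 damage rating recorded 3 weeks after a pre-emergence soil spray of 500 g/ha on seeded Ube alluvial soil, with plants held in a glasshouse near 25° C.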

[6] = test system: bulrush; assay: Herbicidal test for paddy field; type: in vivo, Scrips juncoides; conditions: paddy field pot, 500 g/ha dropwise at 1.5 leaf stage of barnyardgrass, 3 weeks, rank vs non-treated
In short: as §1

[7] = test system: sugar beat; assay: Soil treatment test for upland field; type: in vivo; conditions: 500 g/ha, glass house 25° C., 3 weeks
In short: as §4

[8] = test system: wheat; assay: Soil treatment test for upland field; type: in vivo; conditions: 500 g/ha, glass house 25° C., 3 weeks
In short: as §4

[9] = test system: solgum; assay: Soil treatment test for upland field; type: in vivo; conditions: 500 g/ha, glass house 25° C., 3 weeks
In short: as §4

[10] = test system: corn; assay: Soil treatment test for upland field; type: in vivo; conditions: 500 g/ha, glass house 25° C., 3 weeks
In short: as §4

[11] = test system: cotton; assay: Soil treatment test for upland field; type: in vivo; conditions: 500 g/ha, glass house 25° C., 3 weeks
In short: as §4

[12] = test system: soybean; assay: Soil treatment test for upland field; type: in vivo; conditions: 500 g/ha, glass house 25° C., 3 weeks
In short: as §4

[13] = test system: Large crabgrass; assay: Soil treatment test for upland field; type: in vivo, Digitaria adscendens; conditions: 500 g/ha, glass house 25° C., 3 weeks
In short: as §4

[14] = test system: barnyardgrass; assay: Foliar spread test for upland field; type: in vivo, Echinochloa crusgalli; conditions: foliar spray 500 ppm, 3 weeks, rank vs non-treated
In short: as §2

SMILES | Effect Monochoria [1] | Effects Large crabgrass [2] | Effects Cotton [3] | Effects Soybean [4] | Effects Livid amaranth [5] | Effect Bulrush [6] | Effects Sugar beat [7] | Effects Wheat [8] | Effects Solgum [9] | Effects Corn [10] | Effects Cotton [11] | Effects Soybean [12] | Effects Large crabgrass [13] | Effects Barnyardgrass [14]
CC(Oc1ccc(F)c(C(F)(F)F)c1)c1nc2cc(Cl)ccc2o1 (stereo not shown) [Compound 137] | 3 | 1 | 2 | 3 | 5 | 3 | 2 | 1 | 1 | 1 | 0 | 0 | 5 | 
CCC(Oc1cccc(C(F)(F)F)c1)c1nc2cc(Cl)ccc2o1 (stereo not shown) [Compound 140] | 5 | 2 | 3 | 3 | 5 |  | 3 | 0 | 1 | 0 | 0 | 0 | 5 | 2
CCCC(Oc1ccc(F)c(C(F)(F)F)c1)c1nc2cc(Cl)ccc2o1 (stereo not shown) [Compound 141] | 5 | 4 | 3 | 4 | 5 | 5 | 5 | 0 | 2 | 1 |  | 2 | 5 | 4
CCC(Oc1ccc(F)c(C(F)(F)F)c1)c1nc2cc(C(F)(F)F)ccc2o1 (stereo not shown) [Compound 197] | 5 | 3 | 3 | 5 | 5 |  | 5 | 2 | 2 | 2 | 3 |  | 5 | 1
CCC(Oc1cccc(C(F)(F)F)c1)c1nc2cc(C#N)c(C#N)cc2o1 (stereo not shown) [Compound 315] | 4 | 2 |  |  | 5 | 2 | 5 | 1 | 1 | 2 | 1 | 1 | 5 | 
CCCC(Oc1cccc(C(F)(F)F)c1)c1nc2cc(F)c(C(F)(F)F)cc2o1 (stereo not shown) [Compound 474] | 5 | 5 |  |  | 5 |  | 5 | 1 | 1 | 2 | 1 | 2 | 5 | 
CCCC(Oc1ccc(F)c(C(F)(F)F)c1)c1nc2cc(F)c(Cl)cc2o1 (stereo not shown) [Compound 494] | 5 |  | 2 |  | 5 | 3 | 5 | 1 | 1 | 1 | 0 | 0 | 5 | 
CCCC(Oc1cccc(C(F)(F)F)c1)c1nc2cc(F)c(Cl)cc2o1 (stereo not shown) [Compound 497] | 4 | 2 | 2 |  | 5 | 2 | 5 | 1 | 1 | 1 | 1 | 1 | 5 | 
CCC(Oc1cccc(C#N)c1)c1nc2cc(F)c(Cl)cc2o1 (stereo not shown) [Compound 498] | 2 | 3 |  |  | 5 | 3 | 5 | 1 | 1 | 0 | 1 | 1 | 5 | 
